Article PMC11969438 (Inorganic Chemistry Frontiers, 2025)

Test: Hematological analysis after long-term treatment
Conditions: 72 h after the fourth dose
Description: Mice were kept in groups of four per cage with sterilized paper-based environmental enrichment and food and water ad libitum, under pathogen-free conditions and a controlled environment with a 12 h light–dark cycle. Syngeneic models of colorectal carcinoma were generated via subcutaneous injection of CT-26 cells (0.5 × 10^6 cells in 50 μL of serum-free RPMI-1640 medium) into the right flank of 8–12 weeks old BALB/c mice. […] All animals were euthanized 24 h after the second dose. […] To determine the anticancer efficacy of the investigated compounds, treatment started 4 d after tumor implantation, when all tumors were measurable (>25 mm^3) using a twice-weekly treatment scheme for two weeks. Tumor size was determined daily via manual caliper measurement. The tumor volume was calculated as tumor volume = (length × diameter × diameter)/2. The overall condition, shape, and activity of the animals were assessed daily. Peripheral blood was collected from the submandibular vein in K3E K3EDTA tubes (Greiner Bio-One; Kremsmünster, AUT) on ice and was analyzed for hematological parameters (red blood cells (RBCs), hemoglobin (HGB), hematocrit (HCT), red cell distribution width (RDW), mean corpuscular volume (MCV), white blood cells (WBCs), lymphocytes (LYM), monocytes (MO), granulocytes (GRA), and platelets (PLT) using a Vet ABC hematology analyzer (scil Animal Care GmbH, Viernheim, Germany). EDTA-blood was centrifuged (900g, 10 min) twice and the supernatant (EDTA-plasma) was stored at −20 °C for subsequent cytokine/chemokine analysis using a Luminex detection platform. All animal experiments were performed with humane endpoints based on Federation of European Laboratory Animal Science Associations guidelines and according to the regulations of the Ethics Committee for the Care and Use of Laboratory Animals at the Medical University Vienna (proposal number BMBWF 2023–0.122.324). Animals were euthanized upon reaching a tumor volume of >1500 mm^3, a loss in body weight (>20%), tumor ulceration or other indications of deteriorated health. Animals were euthanized via cervical dislocation.

**Q.** For O=C1[O][Pt]2([NH][C@@H]3CCCC[C@H]3[NH]2)[O]C1=O [oxaliplatin, reference compound], which “platelet counts (PLT) / thrombocytopenia” value is on record?
**A.** distinctly reduced platelet counts

**Q.** And the “absolute counts of white blood cells and subpopulations” value (i.v. twice a week for two weeks)?
**A.** massively lowered
